Reference: BigSolDB 2.1

CC(CO)(CO)C(=O)O
solubility (mole fraction)
Conditions | in 1,4-dioxane | in MIBK | in cyclopentyl methyl ether | in ethyl acetate | in gamma-butyrolactone | in gamma-valerolactone | in n-butyl acetate
298.15 K | 0.00778 | 0.0149 | 0.00164 | 0.00368 | 0.00637 | 0.00643 | 0.00173
303.15 K | 0.00937 | 0.0164 | 0.00194 | 0.00388 | 0.00793 | 0.008 | 0.00199
308.15 K | 0.0124 | 0.0172 | 0.00239 | 0.00447 | 0.00942 | 0.00913 | 0.00234
313.15 K | 0.0147 | 0.0186 | 0.00276 | 0.00507 | 0.012 | 0.0107 | 0.00268
318.15 K | 0.0178 | 0.0192 | 0.00329 | 0.00646 | 0.0148 | 0.0124 | 0.00294
323.15 K | 0.0219 | 0.0202 | 0.00366 | 0.00745 | 0.0187 | 0.0146 | 0.00381
328.15 K | 0.0258 | 0.022 | 0.00381 | 0.00824 | 0.0214 | 0.0183 | 0.00433
333.15 K | 0.0334 | 0.0244 | 0.00433 | 0.0124 | 0.026 | 0.0218 | 0.00528
338.15 K | 0.0365 | 0.0259 | 0.00501 | 0.0147 | 0.0315 | 0.0251 | 0.00572
343.15 K | 0.041 | 0.0274 | 0.00598 | – | 0.0367 | 0.0305 | 0.00685
345.15 K | 0.0442 | – | – | – | 0.0392 | 0.0324 | –
348.15 K | 0.0479 | 0.0288 | 0.00621 | – | 0.042 | 0.037 | 0.00763
350.15 K | 0.0501 | – | – | – | 0.048 | 0.0386 | –
353.15 K | 0.0535 | 0.0296 | 0.00906 | – | 0.0529 | 0.0406 | 0.00902
